{
  "source": "patent US9415009B2",
  "about": "(Pearl Therapeutics, Inc., priority 2009, dated 2016)",
  "experiment": "Particle size distribution by laser diffraction (Sympatec, Fraunhofer mode)",
  "format": "physicochemical",
  "conditions": "for optical diameter that 50% by volume of the micronized particles are smaller than / optical diameter that 90% by volume of the micronized particles are smaller than: micronized active agent particles",
  "key": {"[1]": {"conditions": "Example 4, Table 2, micronized API"}, "[2]": {"conditions": "Example 9, Table 9, primary particle size"}, "[3]": {"conditions": "Example 10, Table 11, Triple GFM primary particle size"}, "[4]": {"conditions": "Example 10, Table 12, Triple TFM primary particle size"}},
  "data": [
    {"compound": "COc1ccc(C[C@@H](C)NC[C@H](O)c2ccc(O)c(NC=O)c2)cc1", "note": "(racemic) [Coarse FF API, (±)-2-hydroxy-5-[(1RS)-1-hydroxy-2-[[(1RS)-2-(4-methoxyphenyl)-1-methylethyl]-amino]ethyl]formanilide]", "values": [
      {"measurement": "Span", "setting": "[1]", "result": 2.0}
    ]},
    {"compound": "COc1ccc(C[C@@H](C)NC[C@H](O)c2ccc(O)c(NC=O)c2)cc1", "note": "(racemic) [FF API, (±)-2-hydroxy-5-[(1RS)-1-hydroxy-2-[[(1RS)-2-(4-methoxyphenyl)-1-methylethyl]-amino]ethyl]formanilide]", "values": [
      {"measurement": "Span", "setting": "[2]", "result": 1.8},
      {"measurement": "Span", "setting": "[3]", "result": 1.9},
      {"measurement": "Span", "setting": "[4]", "result": 1.9},
      {"measurement": "Span", "setting": "Example 11, Table 14", "result": 1.8}
    ]},
    {"compound": "COc1ccc(C[C@@H](C)NC[C@H](O)c2ccc(O)c(NC=O)c2)cc1", "note": "(racemic) [Fine FF API, (±)-2-hydroxy-5-[(1RS)-1-hydroxy-2-[[(1RS)-2-(4-methoxyphenyl)-1-methylethyl]-amino]ethyl]formanilide]", "values": [
      {"measurement": "Span", "setting": "[1]", "result": 1.5},
      {"measurement": "d90 (μm)", "setting": "[1]", "result": 2.3, "unit": "μm"}
    ]},
    {"compound": "CCC(=O)O[C@]1(C(=O)SCF)[C@H](C)C[C@H]2[C@@H]3C[C@H](F)C4=CC(=O)C=C[C@]4(C)[C@@]3(F)[C@@H](O)C[C@@]21C", "note": "[FP, S-(fluoromethyl)6^α,9-difluoro-11^β-17-dihydroxy-16^α-methyl-3-oxoandrosta-1,4-diene-17^β-carbothioate, 17-propionate]", "values": [
      {"measurement": "optical diameter that 50% by volume of the micronized particles are smaller than", "result": 2.6, "unit": "μm"},
      {"measurement": "optical diameter that 90% by volume of the micronized particles are smaller than", "result": 6.6, "unit": "μm"}
    ]},
    {"compound": "C[C@@H]1C[C@H]2[C@@H]3CCC4=CC(=O)C=C[C@]4(C)[C@@]3(Cl)[C@@H](O)C[C@]2(C)[C@@]1(OC(=O)c1ccco1)C(=O)CCl", "note": "[MF, 9α,21-dichloro-11β,17-dihydroxy-16α-methylpregna-1,4-diene-3,20-dione 17-(2-furoate)]", "values": [
      {"measurement": "Span", "setting": "[2]", "result": 2.2},
      {"measurement": "×10 (μm)", "setting": "[2]", "result": 0.4, "unit": "μm"},
      {"measurement": "×50 (μm)", "setting": "[2]", "result": 1.1, "unit": "μm"},
      {"measurement": "×90 (μm)", "setting": "[2]", "result": 2.8, "unit": "μm"},
      {"measurement": "Span", "setting": "[3]", "result": 1.9},
      {"measurement": "d10 (μm)", "setting": "[3]", "result": 0.4, "unit": "μm"},
      {"measurement": "d50 (μm)", "setting": "[3]", "result": 1.0, "unit": "μm"},
      {"measurement": "d90 (μm)", "setting": "[3]", "result": 2.3, "unit": "μm"},
      {"measurement": "Span", "setting": "[4]", "result": 2.2},
      {"measurement": "d10 (μm)", "setting": "[4]", "result": 0.4, "unit": "μm"},
      {"measurement": "d50 (μm)", "setting": "[4]", "result": 1.1, "unit": "μm"},
      {"measurement": "d90 (μm)", "setting": "[4]", "result": 2.8, "unit": "μm"},
      {"measurement": "optical diameter that 50% by volume of the micronized particles are smaller than", "result": 1.6, "unit": "μm"},
      {"measurement": "optical diameter that 90% by volume of the micronized particles are smaller than", "result": 3.5, "unit": "μm"}
    ]},
    {"compound": "C[N+]1(C)[C@@H]2C[C@@H](OC(=O)C(O)(c3cccs3)c3cccs3)C[C@H]1[C@@H]1O[C@@H]12", "note": "[Micronized Tiotropium Bromide Anhydrous, tiotropium bromide]", "values": [
      {"measurement": "Span", "setting": "[4]", "result": 2.7},
      {"measurement": "d10 (μm)", "setting": "[4]", "result": 0.5, "unit": "μm"},
      {"measurement": "d50 (μm)", "setting": "[4]", "result": 1.3, "unit": "μm"},
      {"measurement": "d90 (μm)", "setting": "[4]", "result": 3.9, "unit": "μm"}
    ]},
    {"compound": "OCc1cc(C(O)CNCCCCCCOCCCCc2ccccc2)ccc1O", "note": "(stereo not drawn) [SX, 4-hydroxy-α1-[[[6-(4-phenylbutoxy)hexyl]amino]methyl]-1,3-benzenedimethanol, 1-hydroxy-2-naphthalenecarboxylate]", "values": [
      {"measurement": "optical diameter that 50% by volume of the micronized particles are smaller than", "result": 2, "unit": "μm"},
      {"measurement": "optical diameter that 90% by volume of the micronized particles are smaller than", "result": 3.9, "unit": "μm"}
    ]}
  ]
}
